Columns and labels:
[1] = test system: ACE in serum; details: HFFD rats; cited from earlier work
Procedure: Biosurfactants’ inhibitory activity was analyzed in vitro as well as in vivo, using an animal model, in the work of Zouari et al.. […] Moreover, the administration of B. subtilis SPB1 lipopeptides or atorvastatin in vivo, to hypercaloric high-fat–high-fructose diet (HFFD) rats, decr ...

[2] = Ferric reducing antioxidant power (FRAP, TEAC)
Procedure: (§1) The surfactin antioxidant activity was measured using ABTS, DPPH and FRAP assays. Each measurement was performed in triplicate. The ABTS assay was conducted according to Re et al.. In the first instance, radical cation (ABTS^•+) solution was prepared by mixing 7 mM ABTS stock solution (Sigma-Aldrich) with 2.45 mM potassium persulfate solution (Sigma-Aldrich). The mixture was incubated in the dark at room temperature for 12–16 h. Then, the reagent absorbance was adjusted to 0.7 (±0.02) at 734 nm, using distilled water as a blank. The antioxidant activity of the biosurfactant was determined by mixing 10 μL of surfactin (1 mg/mL) with 990 μL of ABTS^•+ solution. The absorbance was measured after 5 min incubation in the dark, using the Spark multimode microplate leader (Tecan Group Ltd., Männedorf, Switzerland), at 734 nm. The standard curve was prepared for Trolox ethanol solution (Sigma-Aldrich, St. Louis, MO, USA) in the range of 0–2000 μM. The activity of surfactin was expressed as the Trolox equivalent antioxidant capacity (TEAC [µM/g]).
Finally, the FRAP assay was conducted according to Benzie et al.. The reaction, performed at pH = 3.6, involved the reduction of Fe^3+ to Fe^2+ in the presence of 2,4,6-trypyridyl-s-triazine, followed by the formation of a colored complex. […]

[3] = test system: angiotensin-converting enzyme (ACE); test: ACE-inhibitory activity assay; format: biochemical
Procedure: The ACE-inhibitory activity assay was performed according to Udenigwe and Aluko [56] and quantified by a regression analysis of ACE-inhibitory activity (%) versus surfactin concentration. The IC50 value, i.e., the surfactin concentration (µg/mL) that causes 50% inhibition of ACE activity, was determined. The assay was carried out in triplicate.

[4] = DPPH free radical scavenging (TEAC)
Procedure: as §1, with “The standard curve was prepared for Trolox ethanol solution (Sigma-Aldrich, St. Louis, MO, USA) in the range of 0–2000 μM.” left out
In addition, the antioxidant activity of surfactin, expressed as the ability to scavenge DPPH free radicals, was investigated according to Xu et al.. […] The sample was centrifuged (12000 rpm) and the absorbance was measured using the Spark multimode microplate leader (Tecan Group Ltd., Männedorf, Switzerland) at 517 nm. The antioxidant activity of surfactin was expressed as Trolox equivalent (TEAC [µM/g]). […]

[5] = ABTS radical cation assay (TEAC)
Procedure: as §1

Row | Molecule | reduction in ACE activity [1] | TEAC, FRAP ([2]; 50 μL surfactin (1 mg/mL) + 150 μL working solution, pH 3.6, 10 min, room temperature, 593 nm, Trolox standard, triplicate) | antioxidant activity (FRAP), in words ([2]; surfactin 1 mg/mL) | ACE inhibition, in words [3] | IC50, ACE-inhibitory activity ([3]; regression of ACE-inhibitory activity (%) versus surfactin concentration, triplicate) | TEAC, DPPH ([4]; 10 μL surfactin (1 mg/mL) + 190 μL 0.1 mM DPPH in ethanol, 30 min in the dark, 517 nm, Trolox standard 0–1000 μM, triplicate) | antioxidant activity (DPPH), in words ([4]; surfactin 1 mg/mL) | TEAC, ABTS ([5]; 10 μL surfactin (1 mg/mL) + 990 μL ABTS•+, 5 min in the dark, 734 nm, Trolox standard 0–2000 μM, triplicate) | antioxidant activity (ABTS), in words ([5]; surfactin 1 mg/mL)
1 | CC(C)c1c(C(=O)Nc2ccccc2)c(-c2ccccc2)c(-c2ccc(F)cc2)n1CC[C@@H](O)C[C@@H](O)CC(=O)O [atorvastatin] | 24% |  |  |  |  |  |  |  | 
2 | surfactin |  | 0.76 ± 0.096 µM/g | trace antioxidant activity | strong inhibitory effect against ACE activity | 620 ± 40 µg/mL | 11.67 ± 0.8 µM/g | trace antioxidant activity | 3.77 ± 0.22 µM/g | trace antioxidant activity

Source: paper PMC9505973, “Sustainable Production of Biosurfactant from Agro-Industrial Oil Wastes by Bacillus subtilis and Its Potential Application as Antioxidant and ACE Inhibitor” (International Journal of Molecular Sciences, 2022)
